Columns and labels:
CL6.7 cells = assay: Cell proliferation assay (BrdU) in OH-Tam-resistant CL6.7 cells; assay type: cell-based; conditions: 200 nM OH-Tam
Method: (§1) FIG. 13: Endocrine resistance is reversed in the presence of an siRNA-ZNF217 in OH-Tam-resistant CL6.7 cells. Total protein extracts from cell lines were analyzed by Western blotting with an anti-ZNF217. Expression of α-tubulin was used as an invariant control. (A) Western-blot analysis of ZNF217 in transfected MVLN and CL6.7 cells with either scrambled RNA or with an siRNA-ZNF217. (B) Cell proliferation (BrdU test) of transfected MVLN and CL6.7 cells with either scrambled RNA or siRNA-ZNF217, in the presence or the absence of 200 nM OH-Tam. This assay was performed in steroid-free medium. P-value (Student's t-test) was considered as significant when P<0.05.
(§2) MCF7 and MDA-MB-231 breast cancer cells were purchased from ATCC and grown according to recommendations in DMEM medium supplemented with 10% fetal bovine serum (Invitrogen, Cergy Pontoise, Paris). S30 cells and their MDA-MB-231 control cells have been previously described (Levenson et al., 2003). The cellular model of endocrine resistance (MVLN and CL6.7 cells) have been previously established and described (Demirpence et al., 1993).
(§3) Proliferating cells were analyzed using the Cell Proliferation ELISA, BrdU (colorimetric) Kit (Roche, Meylan, France). […]

MVLN cells = assay: Cell proliferation assay (BrdU) in MVLN cells; assay type: cell-based; conditions: 200 nM OH-Tam
Method: as §1, §2, §3

CC/C(=C(\c1ccc(O)cc1)c1ccc(OCCN(C)C)cc1)c1ccccc1 [OH-Tam, OH-Tamoxifen]
effect of OH-Tam exposure on cell proliferation (CL6.7 cells; CL6.7 cells (OH-Tam-resistant), steroid-free medium): strong stimulation of CL6.7 cell proliferation | inhibition of cell proliferation (CL6.7 cells; CL6.7 cells, OH-Tam exposure combined with ZNF217 knocking-out (siRNA), P<10^-5): 35% | effect of OH-Tam exposure on cell proliferation (MVLN cells; MVLN cells (OH-Tam-sensitive), steroid-free medium): cytostatic activity | sensitivity to endocrine therapy (cell proliferation) (MVLN cells; MVLN cells, OH-Tam exposure combined with ZNF217 knockdown (siRNA), P=0.001): increased sensitivity to endocrine therapy
